Data reported in patent publication US11578102B2, “LAG3 binding peptides” (Leidos, Inc., priority 2020, dated 2023).
pIC50: −log10 of the molar value. Residues, ends and D or L forms follow the SMILES beside them.

target: T1, human LAG3/FGL1 interaction (Homo sapiens, UniProt P18627); test: Human LAG3/FGL1 TR-FRET Binding Assay (BPS Bioscience); conditions: peptides tested at 100, 33, and 11 μM; 1 hr at RT; read-out: IC50 in LAG3:FLG1 TR-FRET Assay
T1 construct: purchased BPS Bioscience
T1 sequence (P18627 23-450 limits assumed): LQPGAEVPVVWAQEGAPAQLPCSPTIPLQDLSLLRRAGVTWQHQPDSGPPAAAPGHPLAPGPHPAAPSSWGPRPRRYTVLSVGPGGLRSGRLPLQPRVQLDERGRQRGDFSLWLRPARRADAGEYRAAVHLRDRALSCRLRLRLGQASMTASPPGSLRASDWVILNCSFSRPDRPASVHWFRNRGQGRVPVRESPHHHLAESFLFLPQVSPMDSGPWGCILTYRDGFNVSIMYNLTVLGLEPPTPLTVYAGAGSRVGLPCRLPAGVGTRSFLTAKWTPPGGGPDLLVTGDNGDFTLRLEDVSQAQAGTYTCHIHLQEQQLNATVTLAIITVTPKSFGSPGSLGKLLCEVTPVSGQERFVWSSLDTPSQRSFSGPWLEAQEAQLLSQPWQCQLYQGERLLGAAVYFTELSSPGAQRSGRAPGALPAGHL
Method: This example tested the ability of peptides to inhibit the interaction between human LAG3 and FGL1. The peptides were tested using a Human LAG3/FGL1 TR-FRET Binding Assay (BPS Bioscience) carried out according to the manufacturer's instructions.
Peptides 6, 41, 68, 69, 115, 146, 154, and 155 were tested at 100, 33, and 11 μM. Peptide LG56 ([…]; SEQ ID NO:14) served as a peptide positive control. Peptide 93 (SEQ ID NO:15) served as a negative or low activating peptide control. A neutralizing anti-human LAG3 antibody (BPS Bioscience Cat. #71219) was used as an antibody positive control.
Reaction mixes were incubated 1 hr at RT before development. After development, plate was read in a Tecan M1000 TR-FRET instrument.

SMILES	pIC50
CC[C@H](C)[C@H](NC(=O)[C@H](C)NC(=O)CNC(=O)[C@H](C)NC(=O)[C@H](CC(N)=O)NC(=O)[C@@H]1CCCN1C(=O)[C@H](Cc1ccc(O)cc1)NC(=O)[C@H](CCC(N)=O)NC(=O)[C@H](CCCCN)NC(=O)[C@H](CCC(N)=O)NC(=O)[C@@H](NC(=O)[C@H](CCC(N)=O)NC(=O)[C@H](CCC(=O)O)NC(=O)[C@H](CCCCN)NC(=O)[C@@H](NC(=O)[C@@H]1CCCN1C(=O)[C@H](C)NC(=O)[C@@H]1CCCN1C(=O)[C@@H](NC(=O)[C@@H](N)CCCNC(=N)N)C(C)C)C(C)C)C(C)C)C(=O)O [Low Activity Peptide, reference compound] (H-RVPAPVKEQVQKQYPNAGAI-OH; N-terminus and C-terminus assumed)	< 4.00
CC[C@H](C)[C@H](NC(=O)[C@H](CC(=O)O)NC(=O)[C@H](CC(=O)O)NC(=O)[C@H](C)NC(=O)[C@H](Cc1ccc(O)cc1)NC(=O)[C@H](CC(C)C)NC(=O)[C@H](CCCNC(=N)N)NC(=O)[C@@H](NC(=O)[C@H](CCC(=O)O)NC(=O)[C@H](CCCCN)NC(=O)[C@H](CCC(=O)O)NC(=O)[C@H](CC(=O)O)NC(=O)[C@H](Cc1c[nH]c2ccccc12)NC(=O)[C@H](CC(=O)O)NC(=O)[C@H](CCSC)NC(=O)[C@H](CCCNC(=N)N)NC(=O)[C@H](Cc1ccccc1)NC(=O)[C@@H](N)C(C)C)C(C)C)C(=O)N[C@@H](CC(C)C)C(=O)N[C@@H](CC(C)C)C(=O)O [Peptide 146] (H-VFRMDWDEKEVRLYADDILL-OH; N-terminus and C-terminus assumed)	5.14
CSCC[C@H](NC(=O)[C@@H](NC(=O)[C@H](CCC(=O)O)NC(=O)[C@H](CC(C)C)NC(=O)[C@@H](NC(=O)[C@H](CCC(N)=O)NC(=O)[C@H](CCC(=O)O)NC(=O)[C@H](CCCNC(=N)N)NC(=O)[C@H](CC(N)=O)NC(=O)[C@H](Cc1c[nH]cn1)NC(=O)[C@@H](N)CCC(=O)O)C(C)C)C(C)C)C(=O)N[C@@H](Cc1ccc(O)cc1)C(=O)N[C@@H](CO)C(=O)N[C@@H](Cc1ccccc1)C(=O)N[C@@H](CCC(N)=O)C(=O)N[C@H](C(=O)N[C@@H](CC(N)=O)C(=O)N[C@@H](CC(=O)O)C(=O)N[C@@H](Cc1ccc(O)cc1)C(=O)N[C@@H](Cc1ccccc1)C(=O)O)C(C)C [Peptide 154] (H-EHNREQVLEVMYSFQVNDYF-OH; N-terminus and C-terminus assumed)	5.14
